{"source": "patent US7799346B2", "about": "“Method of treatment directed to agent retention in biological tissues” (Advanced Cardiovascular Systems, Inc., priority 1999, dated 2010)", "key": {"[1]": {"settings": "cited from earlier work; for pKa NH3: aminium group NH3+; for pKa CO2H: carboxyl group"}, "[2]": {"experiment": "In-vitro agent retention in perfused excised vessel, fluorescent intensity of tissue sections", "type": "in vitro ADME, porcine", "text": "The target tissue is a live excised porcine carotid. The tissue sample is perfused with buffered saline of Kerbs-henseleit Buffer (Sigma Catalog #K3753) at physiological temperature and pressure. Thereafter, the excised vessels are received in buffered saline solution. The artery segments are sutured to tubing using plastic nipple adapters and loaded into a perfusion chamber. The segments are stretched to their original lengths. In the perfusion chamber, the vessels are allowed to equilibrate for 10 minutes at 37° C. the hydrostatic pressure head above the chamber is about 100 cm.\nA microporous balloon catheter is inserted through the rotating hemostatic valve (RHV) and secured. The agent used is […]. The agent is delivered through the catheter at 3.5 atm pressure for 2 minutes in both control and test samples. The amount of agent delivered is about 3 ml. Immediately following agent introduction, a barrier of Poly(amine) Barrier is delivered through the catheter in only the test samples for about 2 minutes. The total amount of barrier introduced is about 3 ml.\nThe test and control vessels are flushed with the buffer solution for about 15 minutes. The proximal and distal positions of the vessels are marked and the vessels are removed from the perfusion chamber and placed into a bath containing liquid nitrogen. The vessels are mounted in paraffin and sliced in 10 micron thin sections at the proximal, mid and distal portions.\nThe slides are observed using a fluorescent microscope. The fluorescent intensities of the sections are recorded, where fluorescence represents the presence of agent in the tissue. The resulting intensities over the length of the tissue sections are represented in the graphs in FIG. 5A showing the proximal section and FIG. 5B showing the mid section. […] The average intensity of agent in the test sample is about 1083, whereas the control intensity is about 749. Thus, a 44% increase in agent occurs with the use of the barrier. […]"}}}
{"molecule": "O=C(O)[C@@H]1C[C@@H](O)CN1", "note": "[Hydroxyproline]", "values": [{"measurement": "pKa NH3", "setting": "[1]", "result": 9.7}, {"measurement": "pKa CO2H", "setting": "[1]", "result": 1.9}]}
{"molecule": "CSCC[C@H](N)C(=O)O", "note": "[Methionine]", "values": [{"measurement": "pKa NH3", "setting": "[1]", "result": 9.9}]}
{"molecule": "cascade blue", "values": [{"measurement": "fluorescent intensity of agent in tissue section, Distal", "setting": "[2]", "result": 747}, {"measurement": "fluorescent intensity of agent in tissue section, Mid", "setting": "[2]", "result": 831}, {"measurement": "fluorescent intensity of agent in tissue section, Proximal", "setting": "[2]", "result": 669}]}
{"molecule": "N[C@@H](CSSC[C@H](N)C(=O)O)C(=O)O", "note": "[Cystine]", "values": [{"measurement": "pKa NH3", "setting": "[1]", "result": 7.9}, {"measurement": "pKa CO2H", "setting": "[1]", "result": 1.6}]}
